Experimental data as given in publication PMC6978363, “Chaperone mediated detection of small molecule target binding in cells” (Nature Communications, 2020).

Assays:
Assay in all cases: biochemical
Conditions in all cases: read-out: % Inhibition (at 10mM)
JAK2 = JAK2 (Homo sapiens, UniProt O60674)
MSSK1 = biological target: T1, MSSK1 (Homo sapiens, UniProt Q9UPE1)
T1 construct: gene SRPK3

PKC_beta1 = biological target: T2, PKC_beta1 (Homo sapiens, UniProt P05771)
T2 construct: gene PRKCB; isoform beta1

PKD3 = biological target: T3, PKD3 (Homo sapiens, UniProt O94806)
T3 construct: gene PRKD3

LynB = biological target: T4, LynB (Homo sapiens, UniProt P07948)
T4 construct: gene LYN; isoform B

PKD2 = biological target: T5, PKD2 (Homo sapiens, UniProt Q9BZL6)
T5 construct: gene PRKD2

EphA1 = EphA1 (Homo sapiens, UniProt P21709)
KHS1 = biological target: T6, KHS1 (Homo sapiens, UniProt Q9Y4K4)
T6 construct: gene MAP4K5

MRCK_beta = biological target: T7, MRCK_beta (Homo sapiens, UniProt Q9Y5S2)
T7 construct: gene CDC42BPB

CK2_alpha2 = biological target: T8, CK2_alpha2 (Homo sapiens, UniProt P19784)
T8 construct: gene CSNK2A2

CDK5/p25 = biological target: T9, CDK5/p25 (Homo sapiens, UniProt Q00535)
T9 construct: p25

DYRK1A = DYRK1A (Homo sapiens, UniProt Q13627)
IRAK4 = IRAK4 (Homo sapiens, UniProt Q9NWZ3)
GRK6 = GRK6 (Homo sapiens, UniProt P43250)
DNA-PK = biological target: T10, DNA-PK (Homo sapiens, UniProt P78527)
T10 construct: gene PRKDC

CK1_epsilon1 = biological target: T11, CK1_epsilon1 (Homo sapiens, UniProt P49674)
T11 construct: gene CSNK1E; epsilon 1

Fyn = Fyn (Homo sapiens, UniProt P06241)
ROCK2 = ROCK2 (Homo sapiens, UniProt O75116)
BrSK1 = BrSK1 (Homo sapiens, UniProt Q8TDC3)
TNK1 = TNK1 (Homo sapiens, UniProt Q13470)
AKT3 = AKT3 (Homo sapiens, UniProt Q9Y243)
MAPKAPK2 = MAPKAPK2 (Homo sapiens, UniProt P49137)
ACVR1B = ACVR1B (Homo sapiens, UniProt P36896)
PDGFR_beta = biological target: T12, PDGFR_beta (Homo sapiens, UniProt P09619)
T12 construct: gene PDGFRB

PKG1_alpha = biological target: T13, PKG1_alpha (Homo sapiens, UniProt Q13976)
T13 construct: gene PRKG1; isoform alpha

ALK = ALK (Homo sapiens, UniProt Q9UM73)
NEK6 = NEK6 (Homo sapiens, UniProt Q9HC98)
SIK2 = SIK2 (Homo sapiens, UniProt Q9H0K1)
PCTK3 = biological target: T14, PCTK3 (Homo sapiens, UniProt Q07002)
T14 construct: gene CDK18

MARK4 = MARK4 (Homo sapiens, UniProt Q96L34)
EphA2 = EphA2 (Homo sapiens, UniProt P29317)
Kit = Kit (Homo sapiens, UniProt P10721)
PKG2 = biological target: T15, PKG2 (Homo sapiens, UniProt Q13237)
T15 construct: gene PRKG2

MLK1 = biological target: T16, MLK1 (Homo sapiens, UniProt P80192)
T16 construct: gene MAP3K9

JAK1 = JAK1 (Homo sapiens, UniProt P23458)
MARK1 = MARK1 (Homo sapiens, UniProt Q9P0L2)
Frk = Frk (Homo sapiens, UniProt P42685)
DYRK4 = DYRK4 (Homo sapiens, UniProt Q9NR20)

MAPKAPK2, sequence (P49137 whole entry): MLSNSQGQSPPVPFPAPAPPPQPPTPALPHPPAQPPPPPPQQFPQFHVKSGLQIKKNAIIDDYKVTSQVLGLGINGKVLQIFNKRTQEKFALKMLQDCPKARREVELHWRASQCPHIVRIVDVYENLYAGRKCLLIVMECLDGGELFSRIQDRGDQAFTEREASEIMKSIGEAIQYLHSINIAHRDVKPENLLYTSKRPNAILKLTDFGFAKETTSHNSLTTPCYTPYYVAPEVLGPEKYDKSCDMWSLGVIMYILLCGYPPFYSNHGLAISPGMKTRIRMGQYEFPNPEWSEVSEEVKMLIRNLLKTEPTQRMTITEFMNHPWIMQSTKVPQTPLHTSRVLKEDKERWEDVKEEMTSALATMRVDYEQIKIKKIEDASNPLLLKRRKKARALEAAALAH
T10 sequence (P78527 whole entry): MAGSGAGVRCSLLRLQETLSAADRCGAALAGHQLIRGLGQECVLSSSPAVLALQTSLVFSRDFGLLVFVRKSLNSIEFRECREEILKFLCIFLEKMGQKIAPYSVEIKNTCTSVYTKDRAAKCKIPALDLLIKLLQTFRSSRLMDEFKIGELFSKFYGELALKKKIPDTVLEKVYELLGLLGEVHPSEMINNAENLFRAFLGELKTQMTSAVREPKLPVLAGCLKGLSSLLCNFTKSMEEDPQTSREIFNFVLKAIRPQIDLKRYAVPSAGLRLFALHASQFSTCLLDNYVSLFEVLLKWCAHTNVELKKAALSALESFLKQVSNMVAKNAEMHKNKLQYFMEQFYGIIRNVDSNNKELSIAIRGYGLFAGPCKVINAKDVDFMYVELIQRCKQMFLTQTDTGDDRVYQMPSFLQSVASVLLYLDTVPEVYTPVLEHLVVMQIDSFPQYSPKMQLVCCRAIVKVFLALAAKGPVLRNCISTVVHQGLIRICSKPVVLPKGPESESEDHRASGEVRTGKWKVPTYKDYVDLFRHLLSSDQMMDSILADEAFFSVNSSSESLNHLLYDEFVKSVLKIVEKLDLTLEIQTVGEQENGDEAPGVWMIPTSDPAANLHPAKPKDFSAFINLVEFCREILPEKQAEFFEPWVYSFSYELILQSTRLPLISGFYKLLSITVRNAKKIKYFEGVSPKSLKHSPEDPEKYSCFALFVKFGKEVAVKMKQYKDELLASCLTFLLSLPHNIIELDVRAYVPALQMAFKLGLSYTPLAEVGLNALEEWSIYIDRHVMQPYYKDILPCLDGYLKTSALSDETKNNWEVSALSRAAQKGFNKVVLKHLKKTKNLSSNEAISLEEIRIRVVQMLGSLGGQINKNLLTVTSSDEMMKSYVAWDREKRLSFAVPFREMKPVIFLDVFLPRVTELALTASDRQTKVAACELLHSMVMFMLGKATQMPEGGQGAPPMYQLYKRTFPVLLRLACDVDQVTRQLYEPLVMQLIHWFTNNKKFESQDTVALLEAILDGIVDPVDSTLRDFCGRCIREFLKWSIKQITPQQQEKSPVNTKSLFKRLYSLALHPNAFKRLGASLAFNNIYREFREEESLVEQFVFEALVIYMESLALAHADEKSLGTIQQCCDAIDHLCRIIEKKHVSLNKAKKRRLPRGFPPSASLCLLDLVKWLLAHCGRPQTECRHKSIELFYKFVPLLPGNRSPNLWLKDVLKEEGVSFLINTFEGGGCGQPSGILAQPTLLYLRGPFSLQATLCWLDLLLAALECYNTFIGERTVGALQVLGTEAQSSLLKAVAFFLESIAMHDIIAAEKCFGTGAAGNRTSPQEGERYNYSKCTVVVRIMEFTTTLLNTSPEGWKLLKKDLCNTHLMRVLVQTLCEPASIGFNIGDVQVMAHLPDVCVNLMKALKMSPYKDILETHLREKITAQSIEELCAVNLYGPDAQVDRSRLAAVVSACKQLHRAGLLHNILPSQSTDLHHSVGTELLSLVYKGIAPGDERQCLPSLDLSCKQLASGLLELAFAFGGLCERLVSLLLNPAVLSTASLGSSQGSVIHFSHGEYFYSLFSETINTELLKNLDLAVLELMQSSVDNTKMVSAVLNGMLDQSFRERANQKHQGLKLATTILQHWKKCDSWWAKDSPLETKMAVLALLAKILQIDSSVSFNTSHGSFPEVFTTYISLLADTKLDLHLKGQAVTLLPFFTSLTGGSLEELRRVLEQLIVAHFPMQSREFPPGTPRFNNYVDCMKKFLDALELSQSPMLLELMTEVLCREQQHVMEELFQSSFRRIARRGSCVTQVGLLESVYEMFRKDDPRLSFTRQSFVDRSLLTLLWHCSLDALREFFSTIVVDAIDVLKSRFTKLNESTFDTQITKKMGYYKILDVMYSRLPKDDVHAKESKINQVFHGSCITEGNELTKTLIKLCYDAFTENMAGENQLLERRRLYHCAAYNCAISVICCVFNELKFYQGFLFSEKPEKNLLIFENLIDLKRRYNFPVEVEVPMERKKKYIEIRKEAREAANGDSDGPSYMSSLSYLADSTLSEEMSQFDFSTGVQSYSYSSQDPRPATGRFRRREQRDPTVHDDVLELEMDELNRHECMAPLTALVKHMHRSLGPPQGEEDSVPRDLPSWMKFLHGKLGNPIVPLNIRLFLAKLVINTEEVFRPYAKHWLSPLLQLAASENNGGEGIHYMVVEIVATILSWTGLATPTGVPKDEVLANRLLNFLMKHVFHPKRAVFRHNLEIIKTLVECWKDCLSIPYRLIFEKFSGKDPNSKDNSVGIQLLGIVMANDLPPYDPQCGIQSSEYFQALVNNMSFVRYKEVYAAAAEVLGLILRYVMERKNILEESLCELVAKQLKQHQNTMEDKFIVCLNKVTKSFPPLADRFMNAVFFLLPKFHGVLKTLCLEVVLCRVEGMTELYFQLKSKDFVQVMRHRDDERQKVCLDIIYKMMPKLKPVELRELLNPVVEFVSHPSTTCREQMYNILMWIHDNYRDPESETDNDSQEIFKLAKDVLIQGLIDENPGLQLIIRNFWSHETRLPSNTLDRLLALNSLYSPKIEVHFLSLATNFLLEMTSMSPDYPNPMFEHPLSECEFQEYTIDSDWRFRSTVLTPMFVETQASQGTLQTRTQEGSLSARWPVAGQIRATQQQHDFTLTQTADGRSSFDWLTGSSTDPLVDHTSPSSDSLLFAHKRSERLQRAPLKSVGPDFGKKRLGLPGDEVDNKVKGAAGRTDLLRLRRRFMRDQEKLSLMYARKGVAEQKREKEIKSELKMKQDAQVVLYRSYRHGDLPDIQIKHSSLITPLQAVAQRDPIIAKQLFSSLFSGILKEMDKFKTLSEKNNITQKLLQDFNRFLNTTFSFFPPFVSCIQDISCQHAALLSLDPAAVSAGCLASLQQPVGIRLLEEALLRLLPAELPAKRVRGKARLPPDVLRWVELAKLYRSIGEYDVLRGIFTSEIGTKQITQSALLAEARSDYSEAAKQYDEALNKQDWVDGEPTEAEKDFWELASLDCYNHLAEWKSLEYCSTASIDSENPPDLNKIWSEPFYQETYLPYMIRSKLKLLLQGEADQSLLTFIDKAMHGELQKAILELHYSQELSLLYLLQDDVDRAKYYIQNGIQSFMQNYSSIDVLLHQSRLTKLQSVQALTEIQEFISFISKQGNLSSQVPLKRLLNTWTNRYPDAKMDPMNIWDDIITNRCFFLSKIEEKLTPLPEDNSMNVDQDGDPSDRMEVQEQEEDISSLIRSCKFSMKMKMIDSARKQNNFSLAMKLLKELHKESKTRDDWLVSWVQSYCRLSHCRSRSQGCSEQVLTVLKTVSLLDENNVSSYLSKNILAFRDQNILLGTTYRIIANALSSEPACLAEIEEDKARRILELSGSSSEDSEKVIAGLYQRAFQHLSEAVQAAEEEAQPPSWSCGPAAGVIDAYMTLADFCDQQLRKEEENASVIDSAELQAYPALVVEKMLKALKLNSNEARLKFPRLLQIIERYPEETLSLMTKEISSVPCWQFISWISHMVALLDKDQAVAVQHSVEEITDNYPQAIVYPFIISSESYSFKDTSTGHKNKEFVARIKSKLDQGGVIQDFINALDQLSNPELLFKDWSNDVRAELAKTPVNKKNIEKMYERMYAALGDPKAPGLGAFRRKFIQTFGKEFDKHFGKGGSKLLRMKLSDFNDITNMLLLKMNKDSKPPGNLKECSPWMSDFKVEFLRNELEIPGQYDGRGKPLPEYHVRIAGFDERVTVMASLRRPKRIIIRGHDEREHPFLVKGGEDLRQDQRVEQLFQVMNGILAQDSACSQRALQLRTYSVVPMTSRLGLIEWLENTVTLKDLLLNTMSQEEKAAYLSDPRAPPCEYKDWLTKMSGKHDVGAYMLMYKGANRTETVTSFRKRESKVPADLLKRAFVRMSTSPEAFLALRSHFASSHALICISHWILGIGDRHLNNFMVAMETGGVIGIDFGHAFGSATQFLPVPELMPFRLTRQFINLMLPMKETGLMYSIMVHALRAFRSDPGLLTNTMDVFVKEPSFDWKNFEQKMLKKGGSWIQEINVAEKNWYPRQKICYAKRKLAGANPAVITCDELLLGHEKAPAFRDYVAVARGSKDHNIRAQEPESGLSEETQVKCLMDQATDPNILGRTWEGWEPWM
GRK6, sequence (P43250 whole entry): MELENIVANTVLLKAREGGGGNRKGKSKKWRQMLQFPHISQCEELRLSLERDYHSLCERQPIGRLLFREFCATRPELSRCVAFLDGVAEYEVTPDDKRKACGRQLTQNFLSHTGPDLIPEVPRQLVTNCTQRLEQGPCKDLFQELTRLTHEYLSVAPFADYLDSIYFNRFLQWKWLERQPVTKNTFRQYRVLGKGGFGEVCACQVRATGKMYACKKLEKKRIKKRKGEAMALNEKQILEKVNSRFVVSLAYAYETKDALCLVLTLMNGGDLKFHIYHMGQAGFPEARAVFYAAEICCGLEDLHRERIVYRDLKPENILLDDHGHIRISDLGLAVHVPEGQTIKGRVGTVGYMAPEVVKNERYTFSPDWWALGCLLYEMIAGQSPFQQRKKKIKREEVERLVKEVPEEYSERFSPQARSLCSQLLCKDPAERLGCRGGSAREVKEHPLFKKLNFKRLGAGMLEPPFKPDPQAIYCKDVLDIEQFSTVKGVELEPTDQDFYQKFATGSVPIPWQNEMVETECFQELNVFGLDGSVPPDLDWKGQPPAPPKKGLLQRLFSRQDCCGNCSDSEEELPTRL

CC(C)(O)CC(=O)NCCn1ccc2ncnc(Nc3ccc(Oc4cccc(C(F)(F)F)c4)c(Cl)c3)c21 [TAK-285] was tested, and the inhibition (JAK2) was 2%, the inhibition (MSSK1) was 5% and the inhibition (PKC_beta1) was 5%. For the same compound, the inhibition (PKD3) was 31.5%, the inhibition (LynB) was 37% and the inhibition (PKD2) was 80.5%. For the same compound, the inhibition (EphA1) was 7%, the inhibition (KHS1) was 40.5% and the inhibition (MRCK_beta) was 1.5%. The inhibition (CK2_alpha2) was 6.5%, the inhibition (CDK5/p25) was 8% and the inhibition (DYRK1A) was 9.5%. The inhibition (IRAK4) was 6%, the inhibition (GRK6) was -1.5% and the inhibition (DNA-PK) was 11.5%. For the same compound, the inhibition (CK1_epsilon1) was 10.5%, the inhibition (Fyn) was 53% and the inhibition (ROCK2) was -0.5%. The inhibition (BrSK1) was 5%, the inhibition (TNK1) was 12% and the inhibition (AKT3) was 5%. The inhibition (MAPKAPK2) was 7.5%, the inhibition (ACVR1B) was -5% and the inhibition (PDGFR_beta) was -4%. For the same compound, the inhibition (PKG1_alpha) was 0%, the inhibition (ALK) was 8.5% and the inhibition (NEK6) was 6%. It also gave an inhibition (SIK2) of 9.5%, an inhibition (PCTK3) of 6% and an inhibition (MARK4) of 3.5%. The inhibition (EphA2) was 7.5%, the inhibition (Kit) was -1.5% and the inhibition (PKG2) was -11%. The inhibition (MLK1) was 6.5%, the inhibition (JAK1) was 0% and the inhibition (MARK1) was 10%. The inhibition (Frk) was 4.5% and the inhibition (DYRK4) was 1.5%.
